Tests used:
[1] = target: T1, serotonin (5-HT) reuptake (Rattus norvegicus, UniProt P31652); assay: Inhibition of serotonin (5HT) reuptake in synaptosomes from rat brain; type: biochemical; conditions: test concentration of 10 μM
T1 construct: synaptosomes are freshly isolated from areas of the rat brain; from tissue; host or cells: rat brain synaptosomes (P2 fraction)
Outline: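 Compounds screened at 10 μM and reported as percent inhibition of serotonin uptake. Uptake measured in a freshly prepared P2 synaptosomal fraction from rat brain.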

[2] = target: T2, human bradykinin 1 receptor (B1R) (Homo sapiens, UniProt P46663); assay: Functional investigation on the human bradykinin 1 receptor (B1R), Ca2+ FLIPR assay in CHO K1 hB1R cells; type: cell-based; conditions: B1R antagonism human; test substance 10 μM; Ca2+ FLIPR, CHO K1 hB1R cells
T2 construct: expressed in transfected cells; host or cells: CHO K1 cells
T2 sequence (P46663 1-353): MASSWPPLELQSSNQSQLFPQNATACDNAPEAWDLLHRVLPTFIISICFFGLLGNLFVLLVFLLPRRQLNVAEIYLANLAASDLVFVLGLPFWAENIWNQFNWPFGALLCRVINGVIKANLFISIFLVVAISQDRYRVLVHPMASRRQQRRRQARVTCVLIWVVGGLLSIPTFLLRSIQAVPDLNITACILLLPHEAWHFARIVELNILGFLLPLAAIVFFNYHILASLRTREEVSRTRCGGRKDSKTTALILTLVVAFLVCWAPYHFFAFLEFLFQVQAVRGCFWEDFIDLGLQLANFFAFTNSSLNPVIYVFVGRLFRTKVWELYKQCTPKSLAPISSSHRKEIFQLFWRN
Outline: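 Peak Ca2+-dependent fluorescence in B1R-transfected CHO K1 cells measures antagonism of an EC80 agonist challenge given 10-20 min after compound. Agonist is Lys-Des-Arg9-bradykinin for human, Des-Arg9-bradykinin for rat receptor.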

T1 sequence (P31652 whole entry): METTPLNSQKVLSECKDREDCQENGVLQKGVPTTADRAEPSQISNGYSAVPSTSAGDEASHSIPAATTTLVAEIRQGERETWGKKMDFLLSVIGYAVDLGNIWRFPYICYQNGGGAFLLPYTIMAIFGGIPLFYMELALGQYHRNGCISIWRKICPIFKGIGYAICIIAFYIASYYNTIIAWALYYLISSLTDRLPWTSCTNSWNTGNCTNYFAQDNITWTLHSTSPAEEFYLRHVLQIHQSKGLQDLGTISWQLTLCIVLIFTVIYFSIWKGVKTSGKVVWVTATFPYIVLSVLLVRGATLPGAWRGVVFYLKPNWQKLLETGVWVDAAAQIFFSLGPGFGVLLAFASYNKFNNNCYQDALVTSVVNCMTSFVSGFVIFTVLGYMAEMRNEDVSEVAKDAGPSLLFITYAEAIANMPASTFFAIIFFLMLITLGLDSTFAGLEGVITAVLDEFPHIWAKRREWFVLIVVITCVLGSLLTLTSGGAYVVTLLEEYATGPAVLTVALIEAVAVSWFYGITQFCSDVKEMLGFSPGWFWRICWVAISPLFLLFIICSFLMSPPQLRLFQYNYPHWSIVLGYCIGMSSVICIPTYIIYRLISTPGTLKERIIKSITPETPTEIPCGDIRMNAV

COc1ccc(S(=O)(=O)N2CCCC2COCC(=O)NCC2CCC(C(c3ccc(F)cc3)N(C)C)CC2)cc1 (centres unmarked) [Example 511]
5-HT (inhibition of reuptake of serotonin, % inhibition) [1]: 98%
B1R Ant. h [10 μM] % Inhibition [2]: 38%

CN(C)C(c1ccc(F)cc1)C1CCC(CNC(=O)COC2CCCN(S(=O)(=O)c3ccccc3)C2)CC1 (centres unmarked) [Example 488]
5-HT (inhibition of reuptake of serotonin, % inhibition) [1]: 94%
B1R Ant. h [10 μM] % Inhibition [2]: 4%

CN(C)C(c1ccc(F)cc1)C1CCC(CCNC(=O)COCC2CCCN(S(=O)(=O)c3ccccc3)C2)CC1 (centres unmarked) [Example 479]
5-HT (inhibition of reuptake of serotonin, % inhibition) [1]: 97%
B1R Ant. h [10 μM] % Inhibition [2]: 18%

CN(C)C(CCc1ccccc1)C1CCC(CNC(=O)COCCN(C)S(=O)(=O)c2ccc(Cl)cc2Cl)CC1 (centres unmarked) [Example 513]
5-HT (inhibition of reuptake of serotonin, % inhibition) [1]: 89%
B1R Ant. h [10 μM] % Inhibition [2]: 100%

CN(C)C(c1ccc(Cl)cc1)C1CCC(CNC(=O)COCCN(C)S(=O)(=O)c2ccc(Cl)cc2Cl)CC1 (centres unmarked) [Example 459]
5-HT (inhibition of reuptake of serotonin, % inhibition) [1]: 68%
B1R Ant. h [10 μM] % Inhibition [2]: 29%

COc1ccc(S(=O)(=O)N2CCCCC2COCC(=O)NCCC2CCC(C(c3ccc(F)cc3)N(C)C)CC2)cc1OC (centres unmarked) [Example 462]
5-HT (inhibition of reuptake of serotonin, % inhibition) [1]: 90%
B1R Ant. h [10 μM] % Inhibition [2]: −8%

COc1cc(C)c(S(=O)(=O)N2CCN(CCOCC(=O)NCC3CCC(C(CCc4ccccc4)N(C)C)CC3)CC2)c(C)c1C (centres unmarked) [Example 528]
5-HT (inhibition of reuptake of serotonin, % inhibition) [1]: 94%
B1R Ant. h [10 μM] % Inhibition [2]: 98%

COc1cc(C)c(S(=O)(=O)N2CCC(OCC(=O)NCC3CCC(C(c4ccc(F)cc4)N(C)C)CC3)C2)c(C)c1 (centres unmarked) [Example 541]
5-HT (inhibition of reuptake of serotonin, % inhibition) [1]: 95%
B1R Ant. h [10 μM] % Inhibition [2]: 100%

COc1ccc(S(=O)(=O)N2CCCCC2COCC(=O)NCCC2CCC(C(c3ccc(F)cc3)N(C)C)CC2)c(OC)c1 (centres unmarked) [Example 500]
5-HT (inhibition of reuptake of serotonin, % inhibition) [1]: 90%
B1R Ant. h [10 μM] % Inhibition [2]: 3%

CN(C)C(c1ccc(F)cc1)C1CCC(CCNC(=O)COC2CCN(S(=O)(=O)c3ccccc3)C2)CC1 (centres unmarked) [Example 530]
5-HT (inhibition of reuptake of serotonin, % inhibition) [1]: 89%
B1R Ant. h [10 μM] % Inhibition [2]: −18%

Cc1cc(C)c(S(=O)(=O)N(C)CCOCC(=O)NC2CCC(C(c3ccc(F)cc3)N(C)C)CC2)c(C)c1 (centres unmarked) [Example 490]
5-HT (inhibition of reuptake of serotonin, % inhibition) [1]: 86%
B1R Ant. h [10 μM] % Inhibition [2]: 45%

COc1cc(C)c(S(=O)(=O)N2CCC(OCC(=O)NC3CCC(C(c4ccc(F)cc4)N(C)C)CC3)CC2)c(C)c1C (centres unmarked) [Example 454]
5-HT (inhibition of reuptake of serotonin, % inhibition) [1]: 95%
B1R Ant. h [10 μM] % Inhibition [2]: 45%

COc1cc(C)c(S(=O)(=O)N(CCOCC(=O)NC2CCC(C(c3ccc(F)cc3)N(C)C)CC2)Cc2ccccc2)c(C)c1 (centres unmarked) [Example 504]
5-HT (inhibition of reuptake of serotonin, % inhibition) [1]: 89%
B1R Ant. h [10 μM] % Inhibition [2]: 69%

CN(C)C(c1ccc(F)cc1)C1CCC(CCNC(=O)COC2CCN(S(=O)(=O)c3cccc(C(F)(F)F)c3)C2)CC1 (centres unmarked) [Example 466]
5-HT (inhibition of reuptake of serotonin, % inhibition) [1]: 89%
B1R Ant. h [10 μM] % Inhibition [2]: 7%

CN(C)C(CCc1ccccc1)C1CCC(CNC(=O)COCCN(C)S(=O)(=O)c2ccc(F)cc2)CC1 (centres unmarked) [Example 539]
5-HT (inhibition of reuptake of serotonin, % inhibition) [1]: 102%
B1R Ant. h [10 μM] % Inhibition [2]: 27%

COc1cc(C)c(S(=O)(=O)N2CCC(OCC(=O)NCC3CCC(C(c4ccc(Cl)cc4)N(C)C)CC3)CC2)c(C)c1C (centres unmarked) [Example 498]
5-HT (inhibition of reuptake of serotonin, % inhibition) [1]: 88%
B1R Ant. h [10 μM] % Inhibition [2]: 17%

COc1cc(C)c(S(=O)(=O)N2CCCC(OCC(=O)NCCC3CCC(C(c4ccc(F)cc4)N(C)C)CC3)C2)c(C)c1C (centres unmarked) [Example 468]
5-HT (inhibition of reuptake of serotonin, % inhibition) [1]: 95%
B1R Ant. h [10 μM] % Inhibition [2]: 50%

COc1cc(C)c(S(=O)(=O)N(C)CCOCC(=O)NCC2CCC(C(CCc3ccccc3)N(C)C)CC2)c(C)c1 (centres unmarked) [Example 525]
5-HT (inhibition of reuptake of serotonin, % inhibition) [1]: 84%
B1R Ant. h [10 μM] % Inhibition [2]: 99%

CN(C)C(CCc1ccccc1)C1CCC(CNC(=O)COCCN(Cc2ccccc2)S(=O)(=O)c2ccccc2)CC1 (centres unmarked) [Example 533]
5-HT (inhibition of reuptake of serotonin, % inhibition) [1]: 93%
B1R Ant. h [10 μM] % Inhibition [2]: 35%

COc1cc(C)c(S(=O)(=O)N2CCC(OCC(=O)NCC3CCC(C(c4ccc(F)cc4)N(C)C)CC3)CC2)c(C)c1C (centres unmarked) [Example 527]
5-HT (inhibition of reuptake of serotonin, % inhibition) [1]: 96%
B1R Ant. h [10 μM] % Inhibition [2]: 57%

COc1cc(C)c(S(=O)(=O)N(C)CCOCC(=O)NCC2CCC(C(c3ccc(F)cc3)N(C)C)CC2)c(C)c1 (centres unmarked) [Example 458]
5-HT (inhibition of reuptake of serotonin, % inhibition) [1]: 85%
B1R Ant. h [10 μM] % Inhibition [2]: 103%

COc1ccc(S(=O)(=O)N2CCC(OCC(=O)NC3CCC(C(c4ccc(F)cc4)N(C)C)CC3)C2)cc1OC (centres unmarked) [Example 512]
5-HT (inhibition of reuptake of serotonin, % inhibition) [1]: 86%
B1R Ant. h [10 μM] % Inhibition [2]: −4%

CN(C)C(c1ccc(F)cc1)C1CCC(CCNC(=O)COCCN(C)S(=O)(=O)c2ccc(F)cc2)CC1 (centres unmarked) [Example 487]
5-HT (inhibition of reuptake of serotonin, % inhibition) [1]: 101%
B1R Ant. h [10 μM] % Inhibition [2]: 9%

COc1cc(C)c(S(=O)(=O)N2CCC(OCC(=O)NCCC3CCC(C(c4ccc(Cl)cc4)N(C)C)CC3)C2)c(C)c1 (centres unmarked) [Example 492]
5-HT (inhibition of reuptake of serotonin, % inhibition) [1]: 97%
B1R Ant. h [10 μM] % Inhibition [2]: 105%

COc1ccc(S(=O)(=O)N2CCCCC2COCC(=O)NCCC2CCC(C(c3ccc(Cl)cc3)N(C)C)CC2)c(OC)c1 (centres unmarked) [Example 474]
5-HT (inhibition of reuptake of serotonin, % inhibition) [1]: 88%
B1R Ant. h [10 μM] % Inhibition [2]: 17%

COc1cc(C)c(S(=O)(=O)N(CCOCC(=O)NC2CCC(C(c3ccc(F)cc3)N(C)C)CC2)Cc2ccccc2)c(C)c1C (centres unmarked) [Example 523]
5-HT (inhibition of reuptake of serotonin, % inhibition) [1]: 81%
B1R Ant. h [10 μM] % Inhibition [2]: 50%

COc1cc(C)c(S(=O)(=O)N2CCC(CCOCC(=O)NCCC3CCC(C(c4ccc(F)cc4)N(C)C)CC3)CC2)c(C)c1C (centres unmarked) [Example 510]
5-HT (inhibition of reuptake of serotonin, % inhibition) [1]: 99%
B1R Ant. h [10 μM] % Inhibition [2]: 15%

COc1cc(C)c(S(=O)(=O)N2CCC(OCC(=O)NCCC3CCC(C(c4ccc(Cl)cc4)N(C)C)CC3)CC2)c(C)c1C (centres unmarked) [Example 472]
5-HT (inhibition of reuptake of serotonin, % inhibition) [1]: 95%
B1R Ant. h [10 μM] % Inhibition [2]: 1%

CN(C)C(c1ccc(F)cc1)C1CCC(CNC(=O)COC2CCN(S(=O)(=O)c3ccccc3)C2)CC1 (centres unmarked) [Example 532]
5-HT (inhibition of reuptake of serotonin, % inhibition) [1]: 99%
B1R Ant. h [10 μM] % Inhibition [2]: 5%

COc1ccc(S(=O)(=O)N2CCC(OCC(=O)NCC3CCC(C(c4ccc(F)cc4)N(C)C)CC3)C2)cc1OC (centres unmarked) [Example 497]
5-HT (inhibition of reuptake of serotonin, % inhibition) [1]: 86%
B1R Ant. h [10 μM] % Inhibition [2]: −4%

COc1ccc(S(=O)(=O)N(C)CCOCC(=O)NCCC2CCC(C(c3ccc(F)cc3)N(C)C)CC2)cc1OC (centres unmarked) [Example 484]
5-HT (inhibition of reuptake of serotonin, % inhibition) [1]: 96%
B1R Ant. h [10 μM] % Inhibition [2]: −21%

COc1ccc(S(=O)(=O)N(C)CCOCC(=O)NCC2CCC(C(c3ccc(F)cc3)N(C)C)CC2)cc1OC (centres unmarked) [Example 514]
5-HT (inhibition of reuptake of serotonin, % inhibition) [1]: 70%
B1R Ant. h [10 μM] % Inhibition [2]: −6%

COc1ccc(S(=O)(=O)N2CCCCC2COCC(=O)NC2CCC(C(c3ccc(F)cc3)N(C)C)CC2)cc1 (centres unmarked) [Example 450]
5-HT (inhibition of reuptake of serotonin, % inhibition) [1]: 90%
B1R Ant. h [10 μM] % Inhibition [2]: 40%

CN(C)C(CCc1ccccc1)C1CCC(CNC(=O)COC2CCCCC2N(C)S(=O)(=O)c2ccc(Cl)c(Cl)c2)CC1 (centres unmarked) [Example 451]
5-HT (inhibition of reuptake of serotonin, % inhibition) [1]: 84%
B1R Ant. h [10 μM] % Inhibition [2]: 87%

CN(C)C(c1ccc(F)cc1)C1CCC(CCNC(=O)COC2CCN(S(=O)(=O)c3ccc(F)cc3)C2)CC1 (centres unmarked) [Example 518]
5-HT (inhibition of reuptake of serotonin, % inhibition) [1]: 102%
B1R Ant. h [10 μM] % Inhibition [2]: −2%

CCN(CCOCC(=O)NCC1CCC(C(CCc2ccccc2)N(C)C)CC1)S(=O)(=O)c1c(C)cc(OC)c(C)c1C (centres unmarked) [Example 536]
5-HT (inhibition of reuptake of serotonin, % inhibition) [1]: 84%
B1R Ant. h [10 μM] % Inhibition [2]: 105%

COc1ccc(S(=O)(=O)N2CCCCC2COCC(=O)NCC2CCC(C(CCc3ccccc3)N(C)C)CC2)cc1 (centres unmarked) [Example 469]
5-HT (inhibition of reuptake of serotonin, % inhibition) [1]: 87%
B1R Ant. h [10 μM] % Inhibition [2]: 91%
